The subject of one experiment is T. b. gambiense DAL 1402. The experiment can be described thus: In vitro compound sensitivity assay (resazurin viability). The note with it: Trypanosoma brucei, 72 h incubation, n = 1. The class given is cell-based. Here is the method:
(§1) T. b. brucei was cultured in complete HMI-9 medium,[20] which contains 10% fetal bovine serum (FBS) (Invitrogen, Carlsbad, CA), 10% Serum Plus medium (SAFC Biosciences, Lenexa, KS), and 100 units/mL penicillin and 0.1 mg/mL streptomycin. The trypanosomes were propagated in T-25 vented cap flasks (Corning Inc., Lowell, MA) at 37°C and 5% CO2 with humidity. To ensure log growth phase, trypanosomes were sub-cultured at appropriate dilutions (typically 1∶100) every 2–3 days in fresh HMI-9 medium. T. b. rhodesiense parasites were grown in MEM medium with Earle's salts supplemented with 15% horse serum. For T. b. gambiense, the MEM medium was supplemented with 5% heat-inactivated fetal calf serum (FCS) and 15% human serum.[21] L929 mouse fibroblast cells (ATCC CCL1, American Type Culture Collection, Rockville, MD) were used to determine parasite versus mammalian cell selectivity. Cells were cultured in Dulbecco's Modified Eagle Medium (DMEM), supplemented with 10% FBS, L-glutamine and 100 units/mL penicillin and 0.1 mg/mL streptomycin. MDCKII-hMDR1 cells were generously provided by P. Borst at the Netherlands Kancer Institute. Cells were cultured in DMEM with Glutamax, 10% (v/v) FBS, and 100 units/mL penicillin and 0.1 mg/mL streptomycin. Cell monolayers were fed with cell culture media 24 h after seeding and used for permeability studies 3 days later.
(§2) Compounds to be tested were serially diluted in DMSO and added to 96-well plates to give final concentrations ranging from 5 to 0.01 µg/mL. T. b. brucei parasites in the log phase of growth were diluted in HMI-9 media and added to each well for a final concentration of 1×10^4 parasites per well. For the sensitivity assays using T. b. rhodesiense and T. b. gambiense, pararasites were cultured in MEM supplemented with Baltz components (8), diluted in the aforementioned culture media, and added to each well at a density of 1×10^3 cells/well. The final concentration of DMSO was 0.5% and the total volume was 100 µL/well. After a 72 h incubation, resazurin (Sigma-Aldrich, St. Louis, MO) was added to each well [20 µL of 25 mg/100 mL stock in phosphate buffered saline (PBS)] and incubated for an additional 4–6 h.[22] To assess cell viability, fluorescence was quantified using an EnVision Multilabel Plate Reader (Perkin Elmer, Waltham, MA) at an excitation wavelength of 530 nm and emission of 590 nm. Triplicate data points were averaged to generate sigmoidal dose-response curves and determine IC50 values using XLfit curve fitting software from IDBS (Guilford, UK). The IC50 is defined as the amount of compound required to decrease parasite or cell viability by 50% compared to those grown in the absence of the test compound. […]
In general terms: The colour change of resazurin is a common sign of viable cells or microbes.

For experiment [1], the system named is T. b. gambiense ITMAP 141267. Described as above. The class given is cell-based. As to conditions: Trypanosoma brucei, 72 h incubation, n = 1. Here is the method:
as §1, §2

In the next experiment the test system is T. b. gambiense Drani. The description is as above. The class given is cell-based. The note with it: Trypanosoma brucei, 72 h incubation, n = 1. Here is the method:
as §1, §2

In the next experiment the test system is T. b. brucei 427. The experiment is described as follows: Time-kill assay (ATP content, CellTiter Glo). The class given is cell-based. The protocol:
The assessment of oxaborole-mediated killing of T. b. brucei in vitro was conducted using the CellTiter Glo kit (Promega, Inc., Madison, WI) to measure trypanosome ATP content as a real-time indicator of viability. Test compounds were serially diluted from 5 to 0.01 µg/mL into white wall-clear bottom 96-well plates (Corning Inc., Lowell, MA) containing HMI-9 media. 1×10^4 trypanosomes were added to each well. At specified intervals, the CellTiter Glo reagent was added to lyse the parasites and the plates were incubated for 10 min in the dark. Luminescence was quantified using an EnVision plate reader. All determinations were done in duplicate. Time-kill parameters were determined from plots of parasite viability versus incubation time for each concentration tested.
Background: ATP-based viability assays read luminescence as a measure of living cells.

A further experiment has as its target T1, CYP1A2 (Homo sapiens, UniProt P05177).
T1 construct: purchased Promega Inc., Madison, WI
The experiment can be described thus: P450-Glo cytochrome P450 inhibition. The experiment is classed as biochemical. As to conditions: human recombinant CYP1A2. The protocol: (§3) The potential for compound to exert drug-drug interactions that are mediated through inhibition of cytochrome P450 activities was assessed using P450-Glo assay kits (Promega Inc., Madison, WI). Assays for human cytochrome P450 isoforms 3A4, 1A2, 2C9, 2C19, and 2D6 were performed in triplicate according to the manufacturer's instructions over the concentration range 1–100 µM (n = 6 levels). Briefly, SCYX-7158 was added to membrane preparations containing human recombinant CYP450 enzymes together with luminogenic substrates specific to each isoform. Specific CYP450 inhibitors were included as positive controls (ketoconazole, CYP3A4; alpha-napthoflavone, 1A2; sulfaphenazole, CYP2C9; troglitazone, 2C19, and quinidine, CYP2D6). Reactions were initiated by addition of NADPH-regenerating solution and were allowed to incubate for an additional 15–30 min (isoform dependent). Luciferin detection reagent, containing the luciferin-labeled probe substrate, was then added. Luminescence was recorded on an EnVision Multilabel Plate Reader. Calculation of IC50 concentrations for each enzyme was determined using GraphPad Prism (V5.01).

The next experiment addresses T2, CYP3A4 (Homo sapiens, UniProt P08684).
T2 construct: purchased Promega Inc., Madison, WI
The experiment is described as follows: P450-Glo cytochrome P450 inhibition. The experiment is classed as biochemical. The note with it: human recombinant CYP3A4. The protocol: as §3

A further experiment deals with T3, CYP2C9 (Homo sapiens, UniProt P11712).
T3 construct: purchased Promega Inc., Madison, WI
T3 sequence (P11712 whole entry): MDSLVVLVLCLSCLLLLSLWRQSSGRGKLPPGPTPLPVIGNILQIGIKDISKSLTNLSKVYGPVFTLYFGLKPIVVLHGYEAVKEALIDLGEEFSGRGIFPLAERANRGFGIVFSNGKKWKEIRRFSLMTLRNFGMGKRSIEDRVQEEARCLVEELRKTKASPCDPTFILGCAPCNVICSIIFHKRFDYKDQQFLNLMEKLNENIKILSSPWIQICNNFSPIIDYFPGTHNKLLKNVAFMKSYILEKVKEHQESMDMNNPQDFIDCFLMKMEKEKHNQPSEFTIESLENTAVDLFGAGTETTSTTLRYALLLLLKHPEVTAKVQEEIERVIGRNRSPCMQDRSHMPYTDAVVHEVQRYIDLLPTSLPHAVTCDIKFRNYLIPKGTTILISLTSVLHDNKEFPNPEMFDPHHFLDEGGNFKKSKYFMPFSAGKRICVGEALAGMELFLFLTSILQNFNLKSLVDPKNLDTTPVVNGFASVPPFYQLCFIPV
The experiment can be described thus: P450-Glo cytochrome P450 inhibition. The class given is biochemical. As to conditions: human recombinant CYP2C9. The protocol: as §3

A further experiment addresses T4, CYP2C19 (Homo sapiens, UniProt P33261).
T4 construct: purchased Promega Inc., Madison, WI
The experiment can be described thus: P450-Glo cytochrome P450 inhibition. The experiment is classed as biochemical. The note with it: human recombinant CYP2C19. The protocol:
as §3

In the next experiment the target is T5, CYP2D6 (Homo sapiens, UniProt P10635).
T5 construct: purchased Promega Inc., Madison, WI
T5 sequence (P10635 whole entry): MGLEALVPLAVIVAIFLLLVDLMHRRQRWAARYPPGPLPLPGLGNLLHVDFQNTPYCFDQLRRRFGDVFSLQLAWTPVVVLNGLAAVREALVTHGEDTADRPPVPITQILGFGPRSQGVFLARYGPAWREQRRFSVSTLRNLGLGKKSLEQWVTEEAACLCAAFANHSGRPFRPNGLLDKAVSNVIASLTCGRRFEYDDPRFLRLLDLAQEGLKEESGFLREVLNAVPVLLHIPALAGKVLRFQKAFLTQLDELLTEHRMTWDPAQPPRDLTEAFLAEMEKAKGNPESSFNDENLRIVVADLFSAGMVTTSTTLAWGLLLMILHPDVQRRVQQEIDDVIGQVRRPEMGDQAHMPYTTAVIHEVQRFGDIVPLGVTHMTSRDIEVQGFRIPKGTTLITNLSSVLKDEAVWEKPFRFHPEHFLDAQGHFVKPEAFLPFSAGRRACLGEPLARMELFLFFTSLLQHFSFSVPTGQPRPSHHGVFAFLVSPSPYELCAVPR
The experiment is described as follows: P450-Glo cytochrome P450 inhibition. The experiment is classed as biochemical. As to conditions: human recombinant CYP2D6. Here is the method:
as §3

Converted amounts (≈) assume the structure as drawn. Some results are limits rather than exact numbers.

Among the data in PMC3125149, “SCYX-7158, an Orally-Active Benzoxaborole for the Treatment of Stage 2 Human African Trypanosomiasis” (PLoS Neglected Tropical Diseases, 2011) are IC50, reduction in viability and parasites killed values, retold here.

T1 sequence (P05177 whole entry): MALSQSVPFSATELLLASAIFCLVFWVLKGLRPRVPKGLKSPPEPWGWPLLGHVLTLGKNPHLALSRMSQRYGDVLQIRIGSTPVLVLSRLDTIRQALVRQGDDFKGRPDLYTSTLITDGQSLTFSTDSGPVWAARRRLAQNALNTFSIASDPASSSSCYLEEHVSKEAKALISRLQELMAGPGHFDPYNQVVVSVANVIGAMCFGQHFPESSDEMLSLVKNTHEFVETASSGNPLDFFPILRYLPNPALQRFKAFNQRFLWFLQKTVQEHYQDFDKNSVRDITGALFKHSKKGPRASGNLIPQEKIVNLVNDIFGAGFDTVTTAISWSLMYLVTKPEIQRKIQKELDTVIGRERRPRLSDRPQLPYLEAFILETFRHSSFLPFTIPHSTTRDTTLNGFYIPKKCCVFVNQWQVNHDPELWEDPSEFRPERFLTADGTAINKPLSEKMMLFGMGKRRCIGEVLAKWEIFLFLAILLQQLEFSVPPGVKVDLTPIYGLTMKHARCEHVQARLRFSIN
T2 sequence (P08684 whole entry): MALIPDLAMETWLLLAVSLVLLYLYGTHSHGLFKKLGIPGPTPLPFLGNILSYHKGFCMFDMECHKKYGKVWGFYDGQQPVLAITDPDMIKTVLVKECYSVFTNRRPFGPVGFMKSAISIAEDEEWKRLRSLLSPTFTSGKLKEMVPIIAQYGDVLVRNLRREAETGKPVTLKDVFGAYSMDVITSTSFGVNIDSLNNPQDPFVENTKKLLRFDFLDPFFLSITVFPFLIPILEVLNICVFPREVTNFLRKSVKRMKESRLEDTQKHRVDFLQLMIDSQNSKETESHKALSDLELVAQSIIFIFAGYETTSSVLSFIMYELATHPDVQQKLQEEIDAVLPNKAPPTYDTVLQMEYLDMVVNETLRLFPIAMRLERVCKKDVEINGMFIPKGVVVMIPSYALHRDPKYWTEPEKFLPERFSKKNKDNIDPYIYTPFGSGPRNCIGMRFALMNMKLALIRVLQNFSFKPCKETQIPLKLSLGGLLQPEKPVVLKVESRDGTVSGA
T4 sequence (P33261 whole entry): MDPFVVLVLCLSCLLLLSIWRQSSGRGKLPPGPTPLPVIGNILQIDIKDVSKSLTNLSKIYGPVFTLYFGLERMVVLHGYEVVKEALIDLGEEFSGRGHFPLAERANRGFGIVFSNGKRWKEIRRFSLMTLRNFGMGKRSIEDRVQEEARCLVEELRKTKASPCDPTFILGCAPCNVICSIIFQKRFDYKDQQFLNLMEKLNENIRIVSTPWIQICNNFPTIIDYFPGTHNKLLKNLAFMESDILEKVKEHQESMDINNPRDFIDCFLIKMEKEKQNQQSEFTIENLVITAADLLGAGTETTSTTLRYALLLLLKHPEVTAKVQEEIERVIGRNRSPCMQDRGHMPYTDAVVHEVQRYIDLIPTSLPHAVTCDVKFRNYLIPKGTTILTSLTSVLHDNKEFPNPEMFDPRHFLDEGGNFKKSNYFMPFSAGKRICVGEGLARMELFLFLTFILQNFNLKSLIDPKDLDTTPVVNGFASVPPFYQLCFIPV

For orientation: IC50 means the point on the concentration scale where inhibition reaches its midpoint. Take `CC1(C)OB(O)c2cc(NC(=O)c3ccc(F)cc3C(F)(F)F)ccc21` [SCYX-7158]: the 50% inhibitory concentration (IC50) was 0.065 µg/mL (≈ 0.177 µM) in the experiment with T. b. gambiense DAL 1402; 0.092 µg/mL (≈ 0.251 µM) in experiment [1]; 0.129 µg/mL (≈ 0.351 µM) in the experiment with T. b. gambiense Drani; above 100 µM on CYP1A2; 47.4 µM on CYP3A4; 23.5 µM on CYP2C9. Further, the results for the IC50 on CYP2C19 and on CYP2D6 were 23.1 µM and 21.1 µM, respectively. Moreover, in the experiment with T. b. brucei 427 (within 8 h of exposure at 1.25 µg/mL (about 2 times the MIC)), the reduction in viability entry was “greater than 50%”. The compound further registered a parasites killed in the experiment on T. b. brucei 427 (within 24 h of exposure, 1.25 µg/mL) above 99%.
